Reference: patent EP4512427A1, “ANTIBODY-DRUG CONJUGATES BASED ON MOLECULAR GLUE DEGRADERS AND USES THEREOF” (Mablink Bioscience, priority 2023, dated 2025)

Legend:
[1] = tested on: cancerous human cell lines; assay: In vitro cytotoxicity assay (MTT), side-by-side comparisons over the cell line panel; format: cell-based; settings: side-by-side comparison (Figures 1-3, Table 3), result in words
Description: In vitro cytotoxicity of compounds of the disclosure was assessed on several cancerous human cell lines. Cells were plated in 96-well plates at an appropriate density depending on the cell line (between 1000 and 10 000 cells/well in 100µL of appropriate culture media) and incubated at 37°C for 24 hours. Serial dilutions of the tested compound previously dissolved in culture media (50µL) were added, and incubation was carried at 37°C out for 6 days. MTT (5mg/mL in PBS, 20µL, Sigma-Aldrich) was added into the wells, and incubation was continued for 1 to 4 hours at 37°C. Culture media was then carefully removed, and well content was homogeneously dissolved with acidified isopropanol. Absorbance values were measured on a microplate reader using a wavelength of 570 nm (with a reference wavelength of 690 nm). The IC50 concentration values compared to untreated control cells were determined using inhibition dose response curve fitting (GraphPad Prism 9). Exatecan mesylate (cat#HY-13631A) and CR8 (CAS# 294646-77-8; cat#HY-18340) were purchased from MedChemExpress (China).

CycK = CycK protein quantification by Western Blot; format: cell-based, human; settings: 10nM, 2h treatment of JIMT-1 cells
Description: 1×10^6 JIMT-1 cells were plated in 3mL of DMEM/FBS 90:10 (v/v) in 6-well plates and incubated overnight. Cells were treated with the compound 2384 of the invention with or without the proteasome inhibitor MG-132 (MedChemExpress, Cat HY-13259) for 2h. Cells were harvested, and protein were extracted using complete RIPA buffer (RIPA buffer, 1 mM DTT, 1M NaF, 100 mM sodium orthovanadate, phosphatase inhibitor buffer and protease inhibitors) for 1 hour on ice. Lysate were centrifuged 15min at 12 000g at 4°C. and proteins were mixed with 4x Laemmli Sample Buffer (Bio-Rad), heated at 95 °C for 5 mins and separated by SDS PAGE (PROTEAN TGX Stain-Free Gels, Bio-Rad). Proteins were then transferred onto PVDF membrane (iBlot®2 PVDF stacks, Invitrogen) using the iBlot2 device (Invitrogen) and blocked with TBS buffer (Intercept® Blocking Buffer, LI-COR Biosciences). Primary antibodies were incubated overnight at 4°C and secondary antibodies (IRDye Infrared Dyes from LI-COR Biosciences) 1 hour at room temperature. Used primary antibody were: anti-CycK (cat#A301-939A, Bethyl Laboratories, dil. 1:1000) and anti-β-actin (cat#A5441, Sigma-Aldrich, dil. 1:5000). Membranes were scanned using a c500 Imaging System (Azure Biosystems) and densitometric quantification were performed using imaged software. Protein levels were normalized against β-actin.

JIMT-1 cells = assay: Cell cycle arrest assessment (propidium iodide); format: cell-based, human
Description: 1×10^6 JIMT-1 cells were plated in 3mL of DMEM/FBS 90:10 (v/v) in 6-well plates and incubated overnight. Cells were treated with the compound 2384 of the invention or with CR8 for 24h. Cells were then harvested and washed three times with PBS. Cells were suspended into 300µL of propidium iodide working solution (0.05mg/mL) and incubated for 45 minutes at 4°C in the dark. Analysis was performed using a BD Fortessa flow cytometer controlled by BD FACSDiva software (BD Biosciences) and data were analyzed using FlowJo software (BD Bioscience).

SKBR-3 = assay: In vitro cytotoxicity assay (MTT); format: cell-based, human; settings: 6 days incubation
Procedure, shortened: (§1)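 Viability of each human cancer line is measured by MTT reduction after six-day continuous compound treatment at 37°C. IC50 derives from inhibition curve fitting relative to untreated cells.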

MDA-MB-453 = assay: In vitro cytotoxicity assay (MTT); format: cell-based, human; settings: 6 days incubation
Procedure, shortened: as §1

JIMT-1 = assay: In vitro cytotoxicity assay (MTT); format: cell-based, human; settings: 6 days incubation
Procedure, shortened: as §1

BT-474 = assay: In vitro cytotoxicity assay (MTT); format: cell-based, human; settings: BT-474; 6 days incubation, MTT
Procedure, shortened: as §1

NCI-N87 = assay: In vitro cytotoxicity assay (MTT); format: cell-based, human; settings: 6 days incubation
Procedure, shortened: as §1

MDA-MB-231 = assay: In vitro cytotoxicity assay (MTT); format: cell-based, human; settings: 6 days incubation
Procedure, shortened: as §1

For `CC[C@H](CO)Nc1nc(NCc2ccc(-c3ccccn3)cc2)c2ncn(C(C)C)c2n1` [CR8, reference compound], the “in vitro cytotoxicity potency” value [1] was “potencies in the high nanomolar range”, the CycK degradation (CycK) was “no CycK was observed” and the cell cycle analysis (JIMT-1 cells; 24h at 50 nM) was “arrest in G2/M phase”. For the same molecule, the cell cycle analysis (JIMT-1 cells; 24h at 2, 5, and 10 nM) was “no impact on cell cycle”, the IC50 (SKBR-3) was 30.6 nM and the IC50 (MDA-MB-453) was 40.3 nM. The IC50 (JIMT-1) was 25.2 nM, the IC50 (BT-474) was 18.4 nM and the IC50 (NCI-N87) was 62.2 nM. For the same molecule, the IC50 (MDA-MB-231) was 10.4 nM.
